# ChEMBL document CHEMBL5523759, “Discovery of Novel HDAC3 Inhibitors with PD-L1 Downregulating/Degrading and Antitumor Immune Effects” (J Med Chem, 2024)
# Active and inactive are the calls of the source. No cut-off for these calls is given here.
# What was measured:
# Histone deacetylase 3 = Histone deacetylase 3 (Homo sapiens, UniProt O15379); experiment: Inhibition of human recombinant HDAC3 using Ac-Leu-Gly-Lys (Ac)-AMC as substrate preincubated with compound for 10 mins followed by substrate addition and measured after 45 mins by TECAN microtiter plate reader analysis
# [1] = biological target: T1, Histone deacetylase 3 (Mus musculus) (UniProt O88895); experiment: Inhibition of HDAC3 in mouse B16-F10 cells assessed as upregulation of acetylated H3 level at 2 uM measured for 24 hrs by Western blot analysis; format: cell-based
# T1 sequence (whole entry): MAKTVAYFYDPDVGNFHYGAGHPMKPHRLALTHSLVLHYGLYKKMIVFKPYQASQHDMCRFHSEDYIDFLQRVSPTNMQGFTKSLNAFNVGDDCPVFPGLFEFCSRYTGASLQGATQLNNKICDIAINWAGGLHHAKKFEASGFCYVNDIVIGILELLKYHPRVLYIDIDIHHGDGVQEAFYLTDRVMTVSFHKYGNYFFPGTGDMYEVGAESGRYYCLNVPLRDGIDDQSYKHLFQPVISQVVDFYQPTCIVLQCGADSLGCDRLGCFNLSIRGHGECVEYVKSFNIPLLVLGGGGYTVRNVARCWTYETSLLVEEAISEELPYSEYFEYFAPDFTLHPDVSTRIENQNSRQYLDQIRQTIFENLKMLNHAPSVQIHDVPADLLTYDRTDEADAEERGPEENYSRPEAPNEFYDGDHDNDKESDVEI
# [2] = Metabolic stability in mouse liver microsome assessed as parent compound remaining measured at 5 mins; format: ADME; conditions: liver microsomes, read-out: Stability
# [3] = AUC (0 to t) in Sprague-Dawley rat at 2 mg/kg, iv measured up to 12 hrs by LC-MS/MS analysis; format: ADME, organism-based; conditions: in vivo
# B16-F10 [4] = experiment: Antitumor activity against mouse B16-F10 cells implanted in C57BL/6 mouse model assessed as decrease in PD-L1 level at 25 mg/kg, po administered for 9 days by Western blot analysis; format: functional, organism-based; conditions: time 9.0 day
# [5] = Oral bioavailability in Sprague-Dawley rat at 20 mg/kg measured up to 12 hrs by LC-MS/MS analysis; format: ADME, organism-based; conditions: in vivo
# Tubulin = experiment: Inhibition of tubulin polymerization (unknown origin) measured upto 20 mins by spectrophotometer analysis; format: protein-complex assay, Homo sapiens
# [6] = Half life in Sprague-Dawley rat at 20 mg/kg, po measured up to 12 hrs by LC-MS/MS analysis; format: ADME, organism-based; conditions: in vivo
# [7] = Metabolic stability in mouse liver microsome assessed as parent compound remaining measured at 45 mins; format: ADME; conditions: liver microsomes, read-out: Stability
# [8] = biological target: Programmed cell death 1 ligand 1 (Mus musculus) (UniProt Q9EP73); experiment: Induction of PD-L1 degradation in mouse B16-F10 cells 0.5 to 10 uM measured for 4 hrs in presence of MG132 by Western blot analysis; format: cell-based; conditions: dose 0.5-10 µM
# [9] = Tmax in Sprague-Dawley rat at 2 mg/kg, iv measured up to 12 hrs by LC-MS/MS analysis; format: ADME, organism-based; conditions: in vivo
# [10] = AUC (0 to t) in Sprague-Dawley rat at 20 mg/kg, po measured up to 12 hrs by LC-MS/MS analysis; format: ADME, organism-based; conditions: in vivo
# [11] = Metabolic stability in mouse liver microsome assessed as parent compound remaining measured immediately; format: ADME; conditions: liver microsomes, read-out: Stability
# [12] = Acute toxicity in C57BL/6J mouse assessed as survival rate at 1000 mg/kg, po administered for 14 days; format: organism-based; conditions: in vivo, time 14 day
# B16-F10 [13] = experiment: Antitumor activity against mouse B16-F10 cells implanted in C57BL/6 mouse model assessed as induction of PD-L1 degradation at 25 mg/kg, po administered for 9 days by Western blot analysis; format: functional, organism-based; conditions: time 9.0 day
# [14] = Metabolic stability in mouse liver microsome assessed as parent compound remaining measured at 30 mins; format: ADME; conditions: liver microsomes, read-out: Stability
# [15] = biological target: T1, Histone deacetylase 3 (Mus musculus); experiment: Inhibition of HDAC3 in mouse B16-F10 cells assessed as upregulation of acetylated H3 level at 1 to 2 uM measured for 24 hrs by Western blot analysis; format: cell-based; conditions: dose 1-2 µM
# [16] = AUC (0 to infinity) in Sprague-Dawley rat at 20 mg/kg, po measured up to 12 hrs by LC-MS/MS analysis; format: ADME, organism-based; conditions: in vivo
# [17] = biological target: T1, Histone deacetylase 3 (Mus musculus); experiment: Inhibition of HDAC3 in mouse B16-F10 cells assessed as decrease in PD-L1 level measured for 24 hrs by Western blot analysis; format: cell-based; conditions: dose 1-2 µM
# [18] = Metabolic stability in rat liver microsome assessed as parent compound remaining measured at 45 mins; format: ADME; conditions: liver microsomes, read-out: Stability
# [19] = Metabolic stability in rat liver microsome assessed as parent compound remaining measured at 15 mins; format: ADME; conditions: liver microsomes, read-out: Stability
# [20] = AUC (0 to infinity) in Sprague-Dawley rat at 2 mg/kg, iv measured up to 12 hrs by LC-MS/MS analysis; format: ADME, organism-based; conditions: in vivo
# B16-F10 [21] = experiment: Antitumor activity against mouse B16-F10 cells implanted in C57BL/6 mouse model assessed as increase in Ac-H3 expression in tumor at 25 mg/kg, po administered for 9 days by Western blot analysis; format: functional, organism-based; conditions: time 9.0 day
# B16-F10 [22] = experiment: Antitumor activity against mouse B16-F10 cells implanted in C57BL/6 mouse model assessed as tumor growth inhibition at 25 mg/kg, IG administered for 9 days; format: functional; conditions: B16-F10, po, 216 h, time 9 day, read-out: TGI
# [23] = biological target: Programmed cell death 1 ligand 1 (Mus musculus) (UniProt Q9EP73); experiment: Induction of PD-L1 degradation in mouse B16-F10 cells at 10 uM measured for 24 hrs by Western blot analysis relative to control; format: cell-based
# [24] = biological target: Programmed cell death 1 ligand 1 (Mus musculus) (UniProt Q9EP73); experiment: Induction of PD-L1 degradation in mouse B16-F10 cells assessed as upregulation of CTSB level at 1 to 4 uM measured for 4 hrs in presence of CA-074 by Western blot analysis; format: cell-based; conditions: dose 1-4 µM
# [25] = MRT (0 to infinity) in Sprague-Dawley rat at 2 mg/kg, iv measured up to 12 hrs by LC-MS/MS analysis; format: ADME, organism-based; conditions: in vivo
# B16-F10 [26] = experiment: Antitumor activity against mouse B16-F10 cells implanted in C57BL/6 mouse model assessed as upregulation of Ac-H3 expression at 25 mg/kg, po administered for 9 days by Western blot analysis; format: functional, organism-based; conditions: time 9.0 day
# [27] = Apparent volume of distribution in Sprague-Dawley rat at 2 mg/kg, iv measured up to 12 hrs by LC-MS/MS analysis; format: ADME, organism-based; conditions: in vivo, read-out: Vz
# [28] = biological target: Programmed cell death 1 ligand 1 (Mus musculus) (UniProt Q9EP73); experiment: Induction of PD-L1 degradation in mouse B16-F10 cells assessed as upregulation of CTSB level at 1 to 4 uM measured for 4 hrs by Western blot analysis; format: cell-based; conditions: dose 1-4 µM
# [29] = Metabolic stability in mouse liver microsome assessed as intrinsic clearance; format: ADME; conditions: liver microsomes, read-out: CLH
# [30] = Clearance in Sprague-Dawley rat at 20 mg/kg, po measured up to 12 hrs by LC-MS/MS analysis; format: ADME, organism-based; conditions: in vivo
# [31] = Toxicity in C57BL/6 mouse implanted with mouse B16-F10 cells assessed as body weight loss at 25 mg/kg, po administered for 9 days; format: organism-based; conditions: in vivo, 216 h, time 9 day
# [32] = biological target: Programmed cell death 1 ligand 1 (Mus musculus, UniProt Q9EP73); experiment: Induction of PD-L1 degradation in mouse B16-F10 cells measured for 24 hrs by Western blot analysis; format: cell-based
# Programmed cell death 1 ligand 1, sequence (Q9EP73 whole entry): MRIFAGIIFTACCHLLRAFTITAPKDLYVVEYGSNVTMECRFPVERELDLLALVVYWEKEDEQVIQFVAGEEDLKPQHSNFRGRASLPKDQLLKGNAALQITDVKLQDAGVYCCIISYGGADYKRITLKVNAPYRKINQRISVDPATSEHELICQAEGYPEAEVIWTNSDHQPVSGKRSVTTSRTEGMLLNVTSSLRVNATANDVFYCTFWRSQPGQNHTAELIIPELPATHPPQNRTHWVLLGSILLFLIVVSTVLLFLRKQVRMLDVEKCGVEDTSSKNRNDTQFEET
# Programmed cell death 1 ligand 1 (Mus musculus), sequence (Q9EP73 whole entry): as above
# Histone deacetylase 3, sequence (O15379 whole entry): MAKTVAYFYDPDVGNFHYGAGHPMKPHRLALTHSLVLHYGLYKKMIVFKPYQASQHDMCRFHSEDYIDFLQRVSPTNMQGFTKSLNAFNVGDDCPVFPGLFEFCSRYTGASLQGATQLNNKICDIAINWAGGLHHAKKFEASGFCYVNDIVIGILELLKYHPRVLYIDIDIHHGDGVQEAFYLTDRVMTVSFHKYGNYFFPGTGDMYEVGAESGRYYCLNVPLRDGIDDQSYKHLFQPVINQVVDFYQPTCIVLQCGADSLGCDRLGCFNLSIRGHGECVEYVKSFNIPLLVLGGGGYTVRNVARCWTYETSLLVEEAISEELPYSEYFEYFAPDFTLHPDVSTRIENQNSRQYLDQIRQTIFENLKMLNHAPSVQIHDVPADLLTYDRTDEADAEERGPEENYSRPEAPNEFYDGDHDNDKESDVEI
compound,measurement,setting,value
Nc1ccccc1NC(=O)c1ccc(-c2ncc(CNc3ccccc3)s2)cc1,IC50,Histone deacetylase 3,0.066 µM
same,inhibition,[1],Active
CCCNNC(=O)c1ccc(CNC(=O)c2ncc(CNc3ccccc3)s2)cc1,remaining at 5 min,[2],70.4%
same,AUC(0-t) at 12 h,[3],522 ng·h/mL
same,Activity,B16-F10 [4],Active
same,bioavailability,[5],57%
same,IC50,Tubulin,7.3 µM
same,half-life,[6],216 min
same,remaining at 0.75 h,[7],4.03%
same,Activity,[8],Active
same,Tmax,[9],8.4 min
same,AUC(0-t) at 12 h,[10],2740 ng·h/mL
same,remaining at 0 min,[11],100%
same,survival at 336 h,[12],80%
same,Activity,B16-F10 [13],Active
same,remaining at 0.5 h,[14],11.3%
same,inhibition,[15],Active
same,AUC(0-inf),[16],3030 ng·h/mL
same,inhibition,[17],Dose-Dependent Effect
same,remaining at 0.75 h,[18],25.4%
same,remaining at 0.25 h,[19],57.5%
same,AUC(0-inf),[20],529 ng·h/mL
same,Activity,B16-F10 [21],Active
same,inhibition in vivo at 25 mg/kg,B16-F10 [22],37%
same,Emax,[23],80%
same,Activity,[24],Active
same,MRT inf,[25],33 min
same,Activity,B16-F10 [26],Active
same,Vd,[27],2.21 L/kg
same,Activity,[28],Active
same,CLint scaled,[29],563 mL/min/kg
same,CL/F,[30],121 mL/min/kg
same,Activity,[31],Non-Toxic
same,DC50,[32],5.7 µM
